In patent publication US4760136A, “Chartreusin derivatives and salts thereof” (Ishihara Sangyo Kaisha, Ltd., priority 1984, dated 1988):
Structures can show the parent of a compound that is named as a salt. Where two headings read alike, the source gives them in different places.

What was measured:
P-388 leukemia cells = assay: Antitumor activity: P-388 leukemia cells inoculated intraperitoneally, drug administered intravenously, BDF1 mice; assay type: in vivo; conditions: for response vs control in vivo at 20 mg/kg: dose b: 20 mg/kg × 3, i.v. on days 1, 5 and 9
Summary of the method: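 Drug dosing was intravenous on the first, fifth and ninth days after intraperitoneal inoculation of P-388 leukemia cells (1×10^6 per mouse) into BDF1 mice. Vehicles were physiological saline alone, or saline with small amounts of sodium carboxymethyl cellulose or Tween-80.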

[1] = Acute toxicity, intravenous (once), ddY mice; assay type: in vivo; conditions: mouse, in vivo, formulated per Preparation Example
Text: In Table 7 are shown acute toxicity values (LD50, mg/kg) in ddY mice in the case of intravenously administering (once) each of the compounds of this invention in the form of preparations shown in the Preparation Examples shown in Table 7.

[2] = Mus musculus, P388, iv, BDF1 mice, P-388 i.p., read-out: T/C (%) of MST
[3] = Mus musculus, P388, iv, dose f: 80 mg/kg × 3, i.v. on days 1, 5 and 9, BDF1 mice, P-388 i.p., read-out: T/C (%) of MST
[4] = Mus musculus, P388, iv, dose c: 40 mg/kg × 3, i.v. on days 1, 5 and 9, BDF1 mice, P-388 i.p., read-out: T/C (%) of MST
[5] = Mus musculus, P388, iv, read-out: T/C (%) of MST

| SMILES | response vs control in vivo at 20 mg/kg (P-388 leukemia cells; [2]) [%] | LD50 ([1]; iv) [mg/kg] | response vs control in vivo at 80 mg/kg (P-388 leukemia cells; [3]) [%] | response vs control in vivo at 40 mg/kg (P-388 leukemia cells; [4]) [%] | other results |
| --- | --- | --- | --- | --- | --- |
| COC1C(O)C(C)OC(OC2C(Oc3cccc4c(OC(=O)CNC(=O)CNC(=O)CN)c5c(=O)oc6ccc(C)c7c(=O)oc(c34)c5c67)OC(C)C3OC(c4ccccc4)OC32)C1O (centres unmarked) [Compound No. 11] | 186 | ≥ 40 |  |  |  |
| COC1C(O)C(C)OC(OC2C(Oc3cccc4c(OC(=O)CCNC(=O)C(F)(F)F)c5c(=O)oc6ccc(C)c7c(=O)oc(c34)c5c67)OC(C)C3OC(C)(C)OC32)C1O (stereo not drawn) [Compound No. 49, 6-O-(N-Trifluoroacetyl-β-Alanyl)-3',4'-O-Isopropylidene-Chartreusin] |  | ≥ 150 | 207 |  |  |
| COC1C(O)C(C)OC(OC2C(Oc3cccc4c(OC(=O)C(C)CNC(=O)c5ccccc5)c5c(=O)oc6ccc(C)c7c(=O)oc(c34)c5c67)OC(C)C3OC(c4ccccc4)OC32)C1O (centres unmarked) [Compound No. 13] | 186 | ≥ 40 |  | 262 |  |
| COC1C(O)C(C)OC(OC2C(Oc3cccc4c(OC(=O)C(C)CNC(=O)C(F)(F)F)c5c(=O)oc6ccc(C)c7c(=O)oc(c34)c5c67)OC(C)C3OC(C)(C)OC32)C1O (centres unmarked) [compound 85] |  | ≥ 100 | 157 |  |  |
| COC1C(O)C(C)OC(OC2C(Oc3cccc4c(OC(=O)C(C)CNC(C)C)c5c(=O)oc6ccc(C)c7c(=O)oc(c34)c5c67)OC(C)C3OC(c4ccccc4)OC32)C1O (stereo not drawn) [Compound No. 2, 6-O-(N-Isopropyl-β-Amino-Isobutyryl)-3',4'-O-Benzylidene-Chartreusin Hydrochloride] | 184 | ≥ 40 |  | 216 |  |
| CCC1(C)O[C@H]2[C@@H](O1)[C@@H](C)O[C@@H](Oc1cccc3c(OC(=O)CC(C)NC(=O)C(F)(F)F)c4c(=O)oc5ccc(C)c6c(=O)oc(c13)c4c56)[C@@H]2O[C@H]1O[C@H](C)[C@H](O)[C@H](OC)[C@H]1O (some centres unmarked) [compound 131] |  | ≥ 100 | 148 |  |  |
| COC1C(O)C(C)OC(OC2C(Oc3cccc4c(OC(=O)CCN5CCCC5)c5c(=O)oc6ccc(C)c7c(=O)oc(c34)c5c67)OC(C)C3OC(c4ccccc4)OC32)C1O (centres unmarked) [Compound No. 9] | 165 | ≥ 40 |  | 292 |  |
| C/C=C/C(=O)Oc1c2cccc(OC3OC(C)C4OC5(CCCCC5)OC4C3OC3OC(C)C(O)C(OC)C3O)c2c2oc(=O)c3c(C)ccc4oc(=O)c1c2c43 (centres unmarked) [compound 221] |  |  |  |  | response vs control in vivo at 80 mg/kg (P-388 leukemia cells; [5]): 168%; LD50 [1]: ≥ 80 mg/kg |
| COC1C(O)C(C)OC(OC2C(Oc3cccc4c(OC(=O)COC(=O)c5ccccc5)c5c(=O)oc6ccc(C)c7c(=O)oc(c34)c5c67)OC(C)C3OC(c4ccccc4)OC32)C1O (centres unmarked) [Compound No. 167] | 198 | ≥ 40 |  |  |  |
| COC1C(O)C(C)OC(OC2C(Oc3cccc4c(OC(=O)C(C)OCc5ccccc5)c5c(=O)oc6ccc(C)c7c(=O)oc(c34)c5c67)OC(C)C3OC(c4ccccc4)OC32)C1O (centres unmarked) [Compound No. 151] | 155 | ≥ 40 |  | 224 |  |
| COC1C(O)C(C)OC(OC2C(Oc3cccc4c(OC(=O)C(C)CNC(=O)CNC(=O)OCc5ccccc5)c5c(=O)oc6ccc(C)c7c(=O)oc(c34)c5c67)OC(C)C3OC(c4ccccc4)OC32)C1O (centres unmarked) [compound 74] | 186 | ≥ 40 |  |  |  |
| COC1C(O)C(C)OC(OC2C(Oc3cccc4c(OC(=O)C(C)(C)C)c5c(=O)oc6ccc(C)c7c(=O)oc(c34)c5c67)OC(C)C3OC(c4ccccc4)OC32)C1O (centres unmarked) [Compound No. 170] | 198 | ≥ 40 |  |  |  |
| COC1C(O)C(C)OC(OC2C(Oc3cccc4c(OC(=O)CCNC=O)c5c(=O)oc6ccc(C)c7c(=O)oc(c34)c5c67)OC(C)C3OC(c4ccco4)OC32)C1O (centres unmarked) [compound 84] |  | ≥ 80 | 208 | 145 |  |
| COC1C(O)C(C)OC(OC2C(Oc3cccc4c(OC(=O)C5CCCCC5NC(=O)C(F)(F)F)c5c(=O)oc6ccc(C)c7c(=O)oc(c34)c5c67)OC(C)C3OC(c4ccccc4)OC32)C1O (single isomer, unassigned) [Compound No. 118, 6-O-(N-Trifluoroacetyl-2-Amino-Cyclohexanecarbonyl)-3',4'-O-Benzylidene-Chartreusin] |  | ≥ 40 |  |  | T/C (%) of MST (P-388 leukemia cells; dose c: 40 mg/kg × 3, i.v. on days 1, 5 and 9, BDF1 mice, P-388 i.p.): 135% |
| COC1C(O)C(C)OC(OC2C(Oc3cccc4c(OC(=O)CSc5ccccc5)c5c(=O)oc6ccc(C)c7c(=O)oc(c34)c5c67)OC(C)C3OC(C)(C)OC32)C1O (centres unmarked) [Compound No. 174] |  | ≥ 80 | 198 | 148 |  |
| COC1C(O)C(C)OC(OC2C(Oc3cccc4c(OC(=O)CCNC=O)c5c(=O)oc6ccc(C)c7c(=O)oc(c34)c5c67)OC(C)C3OC(c4ccc(F)cc4)OC32)C1O (centres unmarked) [compound 92] | 146 | ≥ 40 |  | 192 |  |
| COC1C(O)C(C)OC(OC2C(Oc3cccc4c(OC(=O)CCNC=O)c5c(=O)oc6ccc(C)c7c(=O)oc(c34)c5c67)OC(C)C3OC(c4cccc(Cl)c4)OC32)C1O (centres unmarked) [compound 90] | 162 | ≥ 30 |  |  |  |
| C/C=C(\C)C(=O)Oc1c2cccc(O[C@@H]3O[C@H](C)[C@@H]4OC(c5ccccc5)O[C@@H]4[C@H]3O[C@H]3O[C@H](C)[C@H](O)[C@H](OC)[C@H]3O)c2c2oc(=O)c3c(C)ccc4oc(=O)c1c2c43 (some centres unmarked) [compound 215] |  |  |  |  | response vs control in vivo at 40 mg/kg (P-388 leukemia cells; [5]): 131%; response vs control in vivo at 80 mg/kg (P-388 leukemia cells; [5]): 158%; LD50 [1]: ≥ 80 mg/kg |
| COC1C(O)C(C)OC(OC2C(Oc3cccc4c(OC(=O)CCNC(=O)c5ccccc5)c5c(=O)oc6ccc(C)c7c(=O)oc(c34)c5c67)OC(C)C3OC(c4cccc(F)c4)OC32)C1O (stereo not drawn) [Compound No. 47, 6-O-(N-benzoyl-β-alanyl)-3',4'-O-(m-fluorobenzylidene)-chartreusin] |  | ≥ 80 | 210 | 150 |  |
| C/C=C/C(=O)Oc1c2cccc(O[C@@H]3O[C@H](C)[C@@H]4OC(C)(C)O[C@@H]4[C@H]3O[C@H]3O[C@H](C)[C@H](O)[C@H](OC)[C@H]3O)c2c2oc(=O)c3c(C)ccc4oc(=O)c1c2c43 [compound 200] |  | ≥ 80 |  | 168 |  |
| COC1C(O)C(C)OC(OC2C(Oc3cccc4c(OC(=O)CC(C)C)c5c(=O)oc6ccc(C)c7c(=O)oc(c34)c5c67)OC(C)C3OC(c4ccccc4)OC32)C1O (centres unmarked) [Compound No. 169, 6-O-(3-Methyl-n-Butyryl)-3',4'-O-Benzylidene-Chartreusin] | 202 | ≥ 40 |  |  |  |
| CCC(CN(C)C)C(=O)Oc1c2cccc(OC3OC(C)C4OC(c5ccccc5)OC4C3OC3OC(C)C(O)C(OC)C3O)c2c2oc(=O)c3c(C)ccc4oc(=O)c1c2c43 (centres unmarked) [compound 134] | 175 | ≥ 30 |  |  | response vs control in vivo at 10 mg/kg (P-388 leukemia cells; Mus musculus, P388, iv, dose a: 10 mg/kg × 3, i.v. on days 1, 5 and 9, BDF1 mice, P-388 i.p., read-out: T/C (%) of MST): 192% |
| COC1C(O)C(C)OC(OC2C(Oc3cccc4c(OC(=O)C(Cc5c[nH]c6ccccc56)NC(=O)OCc5ccccc5)c5c(=O)oc6ccc(C)c7c(=O)oc(c34)c5c67)OC(C)C3OC4(CCCCC4)OC32)C1O (centres unmarked) [compound 133] |  | ≥ 100 | 139 |  |  |
| COC1C(O)C(C)OC(OC2C(Oc3cccc4c(OC(=O)CCNC=O)c5c(=O)oc6ccc(C)c7c(=O)oc(c34)c5c67)OC(C)C3OC(c4ccc(Cl)cc4Cl)OC32)C1O (centres unmarked) [compound 93] |  | ≥ 80 | 165 |  |  |
| COC1C(O)C(C)OC(OC2C(Oc3cccc4c(OC(=O)CN(C)C(=O)C(F)(F)F)c5c(=O)oc6ccc(C)c7c(=O)oc(c34)c5c67)OC(C)C3OC(c4ccccc4F)OC32)C1O (centres unmarked) [compound 82] |  | ≥ 80 | 205 | 148 |  |
| C=CCCC(=O)Oc1c2cccc(O[C@@H]3O[C@H](C)[C@@H]4OC(c5ccc(Cl)cc5Cl)O[C@@H]4[C@H]3O[C@H]3O[C@H](C)[C@H](O)[C@H](OC)[C@H]3O)c2c2oc(=O)c3c(C)ccc4oc(=O)c1c2c43 (some centres unmarked) [compound 217] |  |  |  |  | response vs control in vivo at 80 mg/kg (P-388 leukemia cells; [5]): 181%; LD50 [1]: ≥ 80 mg/kg |
| COC1C(O)C(C)OC(OC2C(Oc3cccc4c(OC(=O)CC(C)CC(C)(C)C)c5c(=O)oc6ccc(C)c7c(=O)oc(c34)c5c67)OC(C)C3OC(C)(C)OC32)C1O (centres unmarked) [compound 237] |  | ≥ 60 |  |  | response vs control in vivo at 60 mg/kg (P-388 leukemia cells; Mus musculus, P388, iv, dose e: 60 mg/kg × 3, i.v. on days 1, 5 and 9, BDF1 mice, P-388 i.p., read-out: T/C (%) of MST): 242% |
| COC1C(O)C(C)OC(OC2C(Oc3cccc4c(OC(=O)CCCCCCCNC(=O)C(F)(F)F)c5c(=O)oc6ccc(C)c7c(=O)oc(c34)c5c67)OC(C)C3OC(c4cccc(F)c4)OC32)C1O (centres unmarked) [Compound No. 64] |  | ≥ 80 | 210 | 165 |  |
| COC1C(O)C(C)OC(OC2C(Oc3cccc4c(OC(=O)c5cccc(N(C)C)c5)c5c(=O)oc6ccc(C)c7c(=O)oc(c34)c5c67)OC(C)C3OC(c4cccc(F)c4)OC32)C1O (centres unmarked) [Compound No. 158, 6-O-(m-Dimethylaminobenzoyl)-3',4'-O-(m-Fluorobenzylidene)-Chartreusin] |  | ≥ 80 | 205 | 174 |  |
